pIC50: −log10 of the molar value. Each block holds one compound with its values, some of them ahead of it.
Tested on: 817829-284-R-J1-PDC complex spheroids, viability
Test: Anticancer human tumor 817829-284-R-J1-PDC patient-derived colon adenocarcinoma cell line growth inhibition [CLK]
Conditions: for pIC50: curve of first compound; for viability, T/C: stronger effect = lower value
How it was run: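 Patient-derived tumor cells grown as complex spheroids with HUVEC endothelial cells and mesenchymal stem cells, treated with drug combinations. Concentrations descend in half-log steps from near clinical Cmax, or from 10 microM if Cmax unknown.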

[1] = second compound 0.0316 µM, first compound 0.0316 µM
[2] = second compound 0.0316 µM, first compound 0.1 µM
[3] = second compound 0.0316 µM, first compound 0.316 µM
[4] = second compound 0.0316 µM, first compound 1 µM
[5] = second compound 0.0316 µM, first compound 3.16 µM
[6] = second compound 0.0316 µM, first compound 10 µM
[7] = second compound 0.1 µM, first compound 0.0316 µM
[8] = second compound 0.1 µM, first compound 0.1 µM
[9] = second compound 0.1 µM, first compound 0.316 µM
[10] = second compound 0.1 µM, first compound 1 µM
[11] = second compound 0.1 µM, first compound 3.16 µM
[12] = second compound 0.1 µM, first compound 10 µM
[13] = second compound 0.316 µM, first compound 0.0316 µM
[14] = second compound 0.316 µM, first compound 0.1 µM
[15] = second compound 0.316 µM, first compound 0.316 µM
[16] = second compound 0.316 µM, first compound 1 µM
[17] = second compound 0.316 µM, first compound 3.16 µM
[18] = second compound 0.316 µM, first compound 10 µM
[19] = second compound 1 µM, first compound 0.0316 µM
[20] = second compound 1 µM, first compound 0.1 µM
[21] = second compound 1 µM, first compound 0.316 µM
[22] = second compound 1 µM, first compound 1 µM
[23] = second compound 1 µM, first compound 3.16 µM
[24] = second compound 1 µM, first compound 10 µM
[25] = second compound 3.16 µM, first compound 0.0316 µM
[26] = second compound 3.16 µM, first compound 0.1 µM
[27] = second compound 3.16 µM, first compound 0.316 µM
[28] = second compound 3.16 µM, first compound 1 µM
[29] = second compound 3.16 µM, first compound 3.16 µM
[30] = second compound 3.16 µM, first compound 10 µM
[31] = second compound 10 µM, first compound 0.0316 µM
[32] = second compound 10 µM, first compound 0.1 µM
[33] = second compound 10 µM, first compound 0.316 µM
[34] = second compound 10 µM, first compound 1 µM
[35] = second compound 10 µM, first compound 3.16 µM
[36] = second compound 10 µM, first compound 10 µM
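Further: spheroids exposed to the agents for seven days before readout.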

- pIC50 (second compound 0.0316 µM): > 7.50
- pIC50 (second compound 0.1 µM): > 7.50
- pIC50 (second compound 0.316 µM): > 7.50
- pIC50 (second compound 1 µM): > 7.50
- pIC50 (second compound 3.16 µM): > 7.50
- pIC50 (second compound 10 µM): > 7.50
Structure (SMILES): Nc1ccn(C2OC(CO)C(O)C2(F)F)c(=O)n1 (stereo unspecified) + CNC(=O)c1ccc(Nc2nc(OC3CCCC3)c3c(-c4ccc5nc(C)oc5c4)c[nH]c3n2)c(OC)c1
- viability, T/C [1]: 7.4%
- viability, T/C [2]: 6.76%
- viability, T/C [3]: 7.11%
- viability, T/C [4]: 7.29%
- viability, T/C [5]: 5.09%
- viability, T/C [6]: 3.92%
- viability, T/C [7]: 8.05%
- viability, T/C [8]: 6.31%
- viability, T/C [9]: 5.97%
- viability, T/C [10]: 5.9%
- viability, T/C [11]: 5.26%
- viability, T/C [12]: 3.21%
- viability, T/C [13]: 8.92%
- viability, T/C [14]: 6.1%
- viability, T/C [15]: 7.05%
- viability, T/C [16]: 4.87%
- viability, T/C [17]: 4.82%
- viability, T/C [18]: 2.7%
- viability, T/C [19]: 6.66%
- viability, T/C [20]: 4.92%
- viability, T/C [21]: 5.51%
- viability, T/C [22]: 5.11%
- viability, T/C [23]: 3.64%
- viability, T/C [24]: 2.55%
- viability, T/C [25]: 6.07%
- viability, T/C [26]: 5.26%
- viability, T/C [27]: 4.97%
- viability, T/C [28]: 4.56%
- viability, T/C [29]: 3.52%
- viability, T/C [30]: 3.21%
- viability, T/C [31]: 7.94%
- viability, T/C [32]: 5.03%
- viability, T/C [33]: 4.94%
- viability, T/C [34]: 4.81%
- viability, T/C [35]: 4.26%
- viability, T/C [36]: 2.75%

Structure (SMILES): COc1cccc2c1C(=O)c1c(O)c3c(c(O)c1C2=O)CC(O)(C(=O)CO)CC3OC1CC(N)C(O)C(C)O1 (stereo unspecified) + CN1CCN(c2cc(C(=O)Nc3cc4cc(-c5cnn(C)c5)ccc4cn3)ccn2)CC1
- pIC50 (second compound 0.0316 µM): > 7.50
- pIC50 (second compound 0.1 µM): > 7.50
- pIC50 (second compound 0.316 µM): > 7.50
- pIC50 (second compound 1 µM): > 7.50
- pIC50 (second compound 3.16 µM): > 7.50
- pIC50 (second compound 10 µM): > 7.50
- viability, T/C [1]: 19.4%
- viability, T/C [2]: 15.6%
- viability, T/C [3]: 3.99%
- viability, T/C [4]: 0.16%
- viability, T/C [5]: 0.37%
- viability, T/C [6]: 1.02%
- viability, T/C [7]: 18.2%
- viability, T/C [8]: 13.4%
- viability, T/C [9]: 2.32%
- viability, T/C [10]: 0.22%
- viability, T/C [11]: 0.51%
- viability, T/C [12]: 0.96%
- viability, T/C [13]: 1.68%
- viability, T/C [14]: 0.69%
- viability, T/C [15]: 0.24%
- viability, T/C [16]: 0.33%
- viability, T/C [17]: 0.63%
- viability, T/C [18]: 0.97%
- viability, T/C [19]: 0.12%
- viability, T/C [20]: 0.29%
- viability, T/C [21]: 0.26%
- viability, T/C [22]: 0.59%
- viability, T/C [23]: 0.53%
- viability, T/C [24]: 0.72%
- viability, T/C [25]: 0.14%
- viability, T/C [26]: 0.16%
- viability, T/C [27]: 0.24%
- viability, T/C [28]: 0.38%
- viability, T/C [29]: 0.38%
- viability, T/C [30]: 0.06%
- viability, T/C [31]: 0.04%
- viability, T/C [32]: 0.07%
- viability, T/C [33]: 0.11%
- viability, T/C [34]: 0.06%
- viability, T/C [35]: 0.1%
- viability, T/C [36]: 0.08%

Structure (SMILES): C=CC(=O)N1CCN(c2nc(=O)n(-c3c(C)ccnc3C(C)C)c3nc(-c4c(O)cccc4F)c(F)cc23)C(C)C1 (stereo unspecified) + CN1CCN(c2cc(C(=O)Nc3cc4cc(-c5cnn(C)c5)ccc4cn3)ccn2)CC1
- pIC50 (second compound 0.0316 µM): 5.51
- pIC50 (second compound 0.1 µM): > 7.50
- pIC50 (second compound 0.316 µM): > 7.50
- pIC50 (second compound 1 µM): > 7.50
- pIC50 (second compound 3.16 µM): > 7.50
- pIC50 (second compound 10 µM): > 7.50
- viability, T/C [1]: 75.7%
- viability, T/C [2]: 70.6%
- viability, T/C [3]: 60.9%
- viability, T/C [4]: 76.9%
- viability, T/C [5]: 49.6%
- viability, T/C [6]: 32.2%
- viability, T/C [7]: 24.9%
- viability, T/C [8]: 25.4%
- viability, T/C [9]: 22.4%
- viability, T/C [10]: 22.8%
- viability, T/C [11]: 16.1%
- viability, T/C [12]: 10.7%
- viability, T/C [13]: 2.69%
- viability, T/C [14]: 2.73%
- viability, T/C [15]: 3%
- viability, T/C [16]: 3.05%
- viability, T/C [17]: 3.47%
- viability, T/C [18]: 1.56%
- viability, T/C [19]: 0.15%
- viability, T/C [20]: 0.15%
- viability, T/C [21]: 0.22%
- viability, T/C [22]: 0.15%
- viability, T/C [23]: 0.1%
- viability, T/C [24]: 0.16%
- viability, T/C [25]: 0.16%
- viability, T/C [26]: 0.28%
- viability, T/C [27]: 0.2%
- viability, T/C [28]: 0.16%
- viability, T/C [29]: 0.51%
- viability, T/C [30]: 0.15%
- viability, T/C [31]: 0.08%
- viability, T/C [32]: 0.11%
- viability, T/C [33]: 0.12%
- viability, T/C [34]: 0.13%
- viability, T/C [35]: 0.12%
- viability, T/C [36]: 0.13%

Reference: PubChem BioAssay AID2060599 (Molecular Pharmacology Branch, DTP, NCI, 2025)
